Assay results published in US20240254118A1, “PRMT5 INHIBITORS AND USES THEREOF” (Gilead Sciences, Inc., priority 2022, published 2024).

Key:
[1] = test system: SDMA signal (PRMT5 inhibition) in HCT116 MTAP-deleted cells; test: Symmetric di-methyl arginine image-based high content screen assay (SDMA assay), HCT116 MTAP-deleted; assay type: cell-based; settings: SDMA assay; for EC50: Homo sapiens, HCT-116, 72 h, 3 days of treatment, cell line not given, taken as HCT116 MTAP-deleted, read-out: EC50 (SDMA assay)
In short: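 Read-out: per-cell mean SDMA immunofluorescence (Alexa Fluor 488 secondary), cells segmented by DAPI on a high-content imager. Compound exposure in HCT116 MTAP-deleted cells lasted until fixation on Day 3; overnight 4° C primary anti-SDMA antibody staining.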

[2] = test system: HCT116 MTAP-deleted cells; test: Cell viability assay (CellTiter-Glo, 7 days), HCT116 MTAP-deleted; settings: Homo sapiens, HCT-116, 168 h
[3] = taken as HCT116 WT versus MTAP-deleted

Row | Compound | EC50 [1] | EC50 selectivity (SDMA assay) [1, 3] | CC50 [2] | EC50 selectivity (SDMA assay) ([1]; taken as HCT116 WT vs MTAP-deleted)
1 | CN(C(=O)c1ccccc1)N(Cc1ccc(C(F)(F)F)cn1)C(=O)c1ccc2nc(N)c3cnn(C)c3c2c1 [Example 37, 4-amino-N′-benzoyl-N′, 1-dimethyl-N-[[5-(trifluoromethyl)-2-pyridyl]methyl]pyrazolo[4,3-c]quinoline-8-carbohydrazide] | 1 to 5 nM | 141 | 100 to 1000 nM | –
2 | CN(C(=O)OCC(F)(F)F)N(Cc1ccc(C(F)(F)F)cn1)C(=O)c1ccc2nc(N)c3cnn(C)c3c2c1 [Example 109, 2,2,2-trifluoroethyl N-[(4-amino-1-methyl-pyrazolo[4,3-c]quinoline-8-carbonyl)-[[5-(trifluoromethyl)-2-pyridyl]methyl]amino]-N-methyl-carbamate] | < 1 nM | 12 | < 100 nM | –
3 | CC(=O)N(C)N(Cc1ccc(-c2cnn(C(F)(F)F)c2)cc1)C(=O)c1ccc2nc(N)c3cnn(C)c3c2c1 [Example 375, N′-acetyl-4-amino-N′,1-dimethyl-N-[[4-[1-(trifluoromethyl)pyrazol-4-yl]phenyl]methyl]pyrazolo[4,3-c]quinoline-8-carbohydrazide] | 1 to 5 nM | 141 | < 100 nM | –
4 | Cn1ncc2c(N)nc3cc(F)c(C(=O)N(Cc4ccccn4)N4CCCC4=O)cc3c21 [Example 53, 4-amino-7-fluoro-1-methyl-N-(2-oxopyrrolidin-1-yl)-N-(pyridin-2-ylmethyl)-1H-pyrazolo[4,3-c]quinoline-8-carboxamide] | 1 to 5 nM | 338 | 100 to 1000 nM | –
5 | CC(=O)N(C)N(Cc1nc2cc(Cl)ccc2o1)C(=O)c1ccc2nc(N)c3cnn(C)c3c2c1 [Example 97, N′-acetyl-4-amino-N-((5-chlorobenzo[d]oxazol-2-yl)methyl)-N′,1-dimethyl-1H-pyrazolo[4,3-c]quinoline-8-carbohydrazide] | 1 to 5 nM | 98 | < 100 nM | –
6 | CN(C(=O)c1ncco1)N(Cc1ccc(C(F)(F)F)cn1)C(=O)c1ccc2nc(N)c3cnn(C)c3c2c1 [Example 100, N′-(4-amino-1-methyl-1H-pyrazolo[4,3-c]quinoline-8-carbonyl)-N-methyl-N′-((5-(trifluoromethyl)pyridin-2-yl)methyl)oxazole-2-carbohydrazide] | < 1 nM | 7 | < 100 nM | –
7 | Cn1ncc2c(N)nc3ccc(C(=O)N(Cc4ccc(C(F)(F)F)cn4)N4C[C@@H]5C[C@H]4CO5)cc3c21 [Example 297, 4-amino-N-((1S,4S)-2-oxa-5-azabicyclo[2.2.1]heptan-5-yl)-1-methyl-N-((5-(trifluoromethyl)pyridin-2-yl)methyl)-1H-pyrazolo[4,3-c]quinoline-8-carboxamide] | 1 to 5 nM | 151 | 100 to 1000 nM | –
8 | Cn1ncc2c(N)nc3cc(F)c(C(=O)N(Cc4ccc(C(F)(F)F)cn4)NC(=O)C45CC(C4)C5)cc3c21 [Example 333, 4-amino-N′-(bicyclo[1.1.1]pentane-1-carbonyl)-7-fluoro-1-methyl-N-((5-(trifluoromethyl)pyridin-2-yl)methyl)-1H-pyrazolo[4,3-c]quinoline-8-carbohydrazide] | < 1 nM | 317 | < 100 nM | –
9 | Cn1ncc2c(N)nc3ccc(C(=O)N(Cc4ccc(C(F)(F)F)cn4)N4CC(F)(F)C4)cc3c21 [Example 359, 4-amino-N-(3,3-difluoroazetidin-1-yl)-1-methyl-N-((5-(trifluoromethyl)pyridin-2-yl)methyl)-1H-pyrazolo[4,3-c]quinoline-8-carboxamide] | < 1 nM | 320 | < 100 nM | –
10 | Cn1ncc2c(N)nc3cc(F)c(C(=O)N(Cc4ccc(C(F)(F)F)cn4)N4C[C@H]5CC[C@@H](C4)O5)cc3c21 [Example 309, 4-amino-N-((1R,5S)-8-oxa-3-azabicyclo[3.2.1]octan-3-yl)-7-fluoro-1-methyl-N-((5-(trifluoromethyl)pyridin-2-yl)methyl)-1H-pyrazolo[4,3-c]quinoline-8-carboxamide] | 1 to 5 nM | 52 | < 100 nM | –
11 | Cn1ncc2c(N)nc3cc(Cl)c(C(=O)N(Cc4ccc(C(F)(F)F)cn4)N4CCOCC4=O)cc3c21 [Example 63, 4-amino-7-chloro-1-methyl-N-(3-oxomorpholin-4-yl)-N-[[5-(trifluoromethyl)-2-pyridyl]methyl]pyrazolo[4,3-c]quinoline-8-carboxamide] | 1 to 5 nM | 70 | < 100 nM | –
12 | CC(=O)N(C)N(Cc1ccc(Cl)cc1Cl)C(=O)c1ccc2nc(N)c3cnn(C)c3c2c1 [Example 329, N′-acetyl-4-amino-N-(2,4-dichlorobenzyl)-N′,1-dimethyl-1H-pyrazolo[4,3-c]quinoline-8-carbohydrazide] | < 1 nM | 134 | < 100 nM | –
13 | CC(=O)N(C)N(Cc1ccc(-c2ccnn2C)cc1F)C(=O)c1ccc2nc(N)c3cnn(C)c3c2c1 [Example 243, N′-acetyl-4-amino-N-(2-fluoro-4-(1-methyl-1H-pyrazol-5-yl)benzyl)-N′,1-dimethyl-1H-pyrazolo[4,3-c]quinoline-8-carbohydrazide] | < 1 nM | 171 | < 100 nM | –
14 | CN(C(=O)c1cocn1)N(Cc1ccc(C(F)(F)F)cn1)C(=O)c1ccc2nc(N)c3cnn(C)c3c2c1 [Example 105, N′-(4-amino-1-methyl-1H-pyrazolo[4,3-c]quinoline-8-carbonyl)-N-methyl-N′-((5-(trifluoromethyl)pyridin-2-yl)methyl)oxazole-4-carbohydrazide] | < 1 nM | 15 | < 100 nM | –
15 | CN(C(=O)C(C)(C)C)N(Cc1ccc(C(F)(F)F)cn1)C(=O)c1ccc2nc(N)c3cnn(C)c3c2c1 [Example 119, 4-amino-N′,1-dimethyl-N′-pivaloyl-N-((5-(trifluoromethyl)pyridin-2-yl)methyl)-1H-pyrazolo[4,3-c]quinoline-8-carbohydrazide] | < 1 nM | 156 | < 100 nM | –
16 | Cn1ncc2c(N)nc3cc(F)c(C(=O)N(Cc4ccc(C(F)(F)F)cn4)N4C[C@@H]5C[C@H]4CO5)cc3c21 [Example 298, 4-amino-N-((1S,4S)-2-oxa-5-azabicyclo[2.2.1]heptan-5-yl)-7-fluoro-1-methyl-N-((5-(trifluoromethyl)pyridin-2-yl)methyl)-1H-pyrazolo[4,3-c]quinoline-8-carboxamide] | < 1 nM | 23 | < 100 nM | –
17 | CC(=O)N(C)N(Cc1cc2cc(Cl)ccn2n1)C(=O)c1ccc2nc(N)c3cnn(C)c3c2c1 [Example 400, N′-acetyl-4-amino-N-((5-chloropyrazolo[1,5-a]pyridin-2-yl)methyl)-N′,1-dimethyl-1H-pyrazolo[4,3-c]quinoline-8-carbohydrazide] | < 1 nM | – | < 100 nM | 278
18 | CC(=O)N(C)N(Cc1ccc2nc(C)sc2c1)C(=O)c1ccc2nc(N)c3cnn(C)c3c2c1 [Example 321, N′-acetyl-4-amino-N′,1-dimethyl-N-((2-methylbenzo[d]thiazol-6-yl)methyl)-1H-pyrazolo[4,3-c]quinoline-8-carbohydrazide] | < 1 nM | 85 | < 100 nM | –
